In patent EP4768499A1, “MACROCYCLIC PEPTIDE COMPOUND HAVING CELL MEMBRANE PERMEABILITY AND METABOLIC STABILITY, AND LIBRARY CONTAINING SAME” (Chugai Seiyaku Kabushiki Kaisha, priority 2023, dated 2025):
Starred links: 1 amine or outer side, 2 acyl side, 3 side chain; linkers in the order of their positions; H or OH if unused. Positions of bridges follow the written chain, without caps; N, C: chain ends. Non-standard residues stand in square brackets, D forms with d. Residues, ends and D or L forms follow the SMILES beside them. *: point of attachment. NMedβ3hAla = C[C@H](CC(=O)[*:2])N(C)[*:1]; NMeF = CN[C@@H](Cc1ccccc1)C(=O)O; NMeGABA = CN(CCCC(=O)[*:2])[*:1]; NMeI = CC[C@H](C)[C@H](NC)C(=O)O; NMeT = CN[C@H](C(=O)O)[C@@H](C)O; hPhe = N[C@@H](CCc1ccccc1)C(=O)O; NMeβAla = CN(CCC(=O)[*:2])[*:1]; NMeD = CN[C@@H](CC(=O)O)C(=O)O; NMeL = CN[C@@H](CC(C)C)C(=O)O; dNMeV = CN[C@@H](C(=O)O)C(C)C; NMeV = CN[C@H](C(=O)O)C(C)C; d(β3hA) = C[C@@H](N)CC(=O)O; NMeAbu = CC[C@H](NC)C(=O)O; NMeA = CN[C@@H](C)C(=O)O; Piperidide = C1CCN(*)CC1; Abu = CC[C@H](N)C(=O)O; NBuGly = CCCCNCC(=O)O; βAla = NCCC(=O)O; Sar = CNCC(=O)O; tBu = CC(C)(C)*

Key:
Caco-2 cells = assay: Membrane permeability test using Caco-2 cells with preincubation; type: in vitro ADME; details: Caco-2 cells, preincubation 20 to 24 hours; apical FaSSIF/HBSS 1% DMSO pH 6.0, basal HBSS 4% BSA pH 7.4; basal sample at 180 minutes
[1] = as above; type: in vitro ADME; details: Caco-2; preincubation 20 to 24 hours; Apical FaSSIF/HBSS pH 6.0, Basal HBSS 4% BSA pH 7.4; 180 minutes; read-out: Caco2 Papp
[2] = Metabolic stability test: liver microsomal stability assay; type: in vitro ADME, mouse; details: mouse liver microsomes 0.5 mg protein/mL, compound 1 µM; for microsomal CLint at 1 µM: male, pH 7.4, presence of NADPH, read-out: Mouse Hepatic Microsome CLh,int NADPH(+); for Mouse Hepatic Microsome CLh,int NADPH(-): absence of NADPH

Caco2 Papp (10^-6 cm/sec) (Caco-2 cells) | Papp A→B [1] [×10⁻⁶ cm/s] | microsomal CLint at 1 µM [2] [µL/min/mg] | Mouse Hepatic Microsome CLh,int NADPH(-) [2] [µL/min/mg Protein] | SMILES
0.26 10^-6 cm/sec | 0.26 | 13.1 | 14.8 | CC[C@H]1C(=O)N[C@@H](COC(C)(C)C)C(=O)N(C)[C@@H](C(C)C)C(=O)N(C)[C@@H](C)C(=O)N(C)[C@H](C)CC(=O)N[C@H](C(C)C)C(=O)N(C)[C@@H](CC(C)C)C(=O)N[C@@H](C)C(=O)N(C)[C@@H](C(C)C)C(=O)N(C)[C@@H](CC(C)C)C(=O)NCC(=O)N(C)[C@@H]([C@@H](C)O)C(=O)N(C)[C@@H](Cc2ccccc2)C(=O)N1C [pd147] (cyclo(A[NMeV][NMeL]G[NMeT][NMeF][NMeAbu]S(tBu)[NMeV][NMeA][NMedβ3hAla][dV][NMeL]))
0.13 10^-6 cm/sec | 0.13 | 25.1 | 23.5 | CC[C@H](C)[C@@H]1NC(=O)[C@H](C)N(C)C(=O)[C@H]([C@@H](C)O)NC(=O)[C@H](CC(C)C)N(C)C(=O)[C@H](CC)N(C)C(=O)[C@H](Cc2ccccc2)N(C)C(=O)[C@H](C)NC(=O)[C@H](Cc2ccccc2)N(C)C(=O)[C@H](C)N(C)C(=O)[C@H](CC(C)C)N(C)C(=O)[C@H](CC(C)C)NC(=O)CCCN(C)C(=O)C[C@@H](C(=O)N2CCCCC2)NC(=O)[C@H](CC(C)C)N(C)C1=O [pd041] ([NMeGABA]L[NMeL][NMeA][NMeF]A[NMeF][NMeAbu][NMeL]T[NMeA]I[NMeL]D-Piperidide; lactam N-14)
0.03 10^-6 cm/sec | 0.03 | 47.5 | 33.7 | CC[C@@H]1NC(=O)[C@H](CC(C)C)N(C)C(=O)[C@H](COC(C)(C)C)NC(=O)[C@H]([C@@H](C)CC)NC(=O)[C@H](Cc2ccccc2)N(C)C(=O)CNC(=O)[C@H]([C@@H](C)CC)NC(=O)[C@H](CC(C)C)N(C)C(=O)CCCN(C)C(=O)C[C@@H](C)N(C)C(=O)[C@H](CC(C)C)NC(=O)[C@H](C)N(C)C(=O)[C@H](Cc2ccccc2)N(C)C(=O)[C@H](C(C)C)NC1=O [pd063] (cyclo([Abu]V[NMeF][NMeA]L[NMedβ3hAla][NMeGABA][NMeL]IG[NMeF]IS(tBu)[NMeL]))
0.88 10^-6 cm/sec | 0.88 | 23.3 | 18.2 | CC[C@H]1C(=O)N(C)CC(=O)N[C@@H]([C@@H](C)O)C(=O)N(C)[C@@H](CC(C)C)C(=O)N[C@@H](CC(C)C)C(=O)N(C)[C@@H](Cc2ccccc2)C(=O)N(C)[C@@H](C(C)C)C(=O)N2CCC[C@H]2C(=O)N(C)[C@@H](C)C(=O)N(C)[C@@H](C(C)C)C(=O)N[C@H](C(=O)N2CCCCC2)CC(=O)N(C)[C@@H](CC(C)C)C(=O)N(C)[C@@H](Cc2ccccc2)C(=O)N1C [pd126] ([NMeL][NMeF][NMeAbu][Sar]T[NMeL]L[NMeF][NMeV]P[NMeA][NMeV]D-Piperidide; lactam N-13)
0.35 10^-6 cm/sec | 0.35 | 30.5 | 21.2 | CC[C@@H]1NC(=O)[C@H](CC(C)C)N(C)C(=O)[C@H](Cc2ccccc2)N(C)C(=O)[C@H](CC(C)C)N(C)C(=O)[C@H](C)NC(=O)C[C@@H](C(=O)N2CCCCC2)NC(=O)[C@H](C(C)C)N(C)C(=O)[C@@H]2CCCN2C(=O)CCN(C)C(=O)[C@H](CC(C)C)NC(=O)[C@H]([C@@H](C)CC)N(C)C(=O)[C@H]([C@@H](C)O)NC(=O)[C@H](Cc2ccccc2)N(C)C1=O [pd112] (A[NMeL][NMeF][NMeL][Abu][NMeF]T[NMeI]L[NMeβAla]P[NMeV]D-Piperidide; lactam N-13)
0.20 10^-6 cm/sec | 0.2 | 10.8 | 1.5 | CC[C@@H]1NC(=O)[C@H](Cc2ccccc2)N(C)C(=O)[C@@H]2CCCN2C(=O)[C@H](CC(C)C)N(C)C(=O)[C@H](C(C)C)NC(=O)[C@H](CC(C)C)N(C)C(=O)[C@H]([C@@H](C)O)NC(=O)[C@H](Cc2ccccc2)N(C)C(=O)CN(C)C(=O)C[C@@H](C)N(C)C(=O)[C@H](C(C)C)NC(=O)[C@H](CC)N(C)C(=O)[C@H](C)N(C)C1=O [pd149] (cyclo([Abu][NMeA][NMeAbu]V[NMedβ3hAla][Sar][NMeF]T[NMeL]V[NMeL]P[NMeF]))
<0.12 10^-6 cm/sec | < 0.12 | 45 | 23.9 | CC[C@@H]1NC(=O)[C@H](CC(C)C)N(C)C(=O)[C@H]([C@@H](C)O)NC(=O)[C@H](C(C)C)N(C)C(=O)[C@H](C)NC(=O)[C@H](Cc2ccccc2)N(C)C(=O)[C@@H](C(C)C)NC(=O)C[C@@H](C(=O)N2CCCCC2)N(C)C(=O)CN(C)C(=O)[C@H](Cc2ccccc2)N(C)C(=O)[C@H](C)N(C)C(=O)[C@H](COC(C)(C)C)NC(=O)[C@H](CC(C)C)N(C)C(=O)CN(C)C1=O [pd090] ([dV][NMeF]A[NMeV]T[NMeL][Abu][Sar][NMeL]S(tBu)[NMeA][NMeF][Sar][NMeD]-Piperidide; lactam N-14)
0.11 10^-6 cm/sec | 0.11 | 40.8 | 34.9 | CC[C@H](C)[C@@H]1NC(=O)[C@H](CC(C)C)N(C)C(=O)[C@H](CC(C)C)NC(=O)[C@H](C)N(C)C(=O)C[C@@H](C)NC(=O)[C@H](CC(C)C)NC(=O)[C@H](CC(C)C)N(C)C(=O)CN(C)C(=O)[C@H](C(C)C)NC(=O)[C@H]([C@@H](C)CC)N(C)C(=O)[C@H](COC(C)(C)C)NC(=O)[C@H](CC(C)C)N(C)C(=O)CCNC(=O)[C@H](Cc2ccccc2)N(C)C1=O [pd007] (cyclo(I[NMeF][βAla][NMeL]S(tBu)[NMeI]V[Sar][NMeL]L[d(β3hA)][NMeA]L[NMeL]))
<0.12 10^-6 cm/sec | < 0.12 | 39.6 | 28.4 | CCCCN1CC(=O)N[C@@H](COC(C)(C)C)C(=O)N(C)[C@@H](Cc2ccccc2)C(=O)N[C@@H](CC(C)C)C(=O)N(C)[C@@H](C(C)C)C(=O)N[C@H](C(=O)N2CCCCC2)CC(=O)N[C@H](C(C)C)C(=O)N(C)[C@@H](Cc2ccccc2)C(=O)N[C@@H](CC(C)C)C(=O)N(C)[C@@H](C(C)C)C(=O)N(C)[C@@H](CC(C)C)C(=O)N[C@@H]([C@@H](C)O)C(=O)N(C)[C@@H](CC(C)C)C1=O [pd100] ([dV][NMeF]L[NMeV][NMeL]T[NMeL][NBuGly]S(tBu)[NMeF]L[NMeV]D-Piperidide; lactam N-13)
<0.14 10^-6 cm/sec | < 0.14 | 26.8 | 20.4 | CC[C@H]1C(=O)N(C)[C@@H](C(C)C)C(=O)N[C@@H](CC(C)C)C(=O)N(C)[C@H](C(=O)N2CCCCC2)CC(=O)N(C)[C@H](C(C)C)C(=O)N(C)[C@@H](CC(C)C)C(=O)N[C@@H](CCc2ccccc2)C(=O)N(C)[C@@H](C(C)C)C(=O)N(C)[C@@H](CC(C)C)C(=O)N[C@@H]([C@@H](C)O)C(=O)N(C)[C@@H](C)C(=O)N(C)[C@@H](CC(C)C)C(=O)N[C@@H](COC(C)(C)C)C(=O)N(C)[C@@H](Cc2ccccc2)C(=O)N1C [pd093] ([dNMeV][NMeL][hPhe][NMeV][NMeL]T[NMeA][NMeL]S(tBu)[NMeF][NMeAbu][NMeV]L[NMeD]-Piperidide; lactam N-14)
0.04 10^-6 cm/sec | 0.04 | 13.4 | 11.8 | CC[C@@H]1NC(=O)[C@H](Cc2ccccc2)N(C)C(=O)[C@H](COC(C)(C)C)NC(=O)[C@H](CC(C)C)N(C)C(=O)[C@H](C(C)C)NC(=O)CN(C)C(=O)[C@H]([C@@H](C)O)NC(=O)[C@H](CC(C)C)N(C)C(=O)[C@H](C(C)C)NC(=O)[C@H](Cc2ccccc2)N(C)C(=O)[C@H](C)N(C)C(=O)[C@@H](C)NC(=O)C[C@@H](C)NC(=O)[C@H](C(C)C)N(C)C1=O [pd008] (cyclo([Abu][NMeV][d(β3hA)][dA][NMeA][NMeF]V[NMeL]T[Sar]V[NMeL]S(tBu)[NMeF]))
0.05 10^-6 cm/sec | 0.05 | 14.8 | 15.8 | CC[C@H](C)[C@@H]1NC(=O)[C@H](C)NC(=O)[C@H](C(C)C)N(C)C(=O)[C@H](COC(C)(C)C)NC(=O)[C@H](C)N(C)C(=O)C[C@@H](C(=O)N2CCCCC2)NC(=O)[C@H](C(C)C)NC(=O)[C@H](Cc2ccccc2)N(C)C(=O)[C@H](CC(C)C)N(C)C(=O)[C@H]([C@@H](C)O)NC(=O)[C@H](CC)N(C)C(=O)[C@H](Cc2ccccc2)N(C)C(=O)[C@H](C)NC(=O)[C@@H]2CCCN2C1=O [pd025] ([NMeA]S(tBu)[NMeV]AIPA[NMeF][NMeAbu]T[NMeL][NMeF]VD-Piperidide; lactam N-14)

SMILES | Caco2 Papp (10^-6 cm/sec) (Caco-2 cells) | Papp A→B [1] [×10⁻⁶ cm/s] | microsomal CLint at 1 µM [2] [µL/min/mg] | Mouse Hepatic Microsome CLh,int NADPH(-) [2] [µL/min/mg Protein]
CC[C@H](C)[C@@H]1NC(=O)[C@H]([C@@H](C)CC)N(C)C(=O)[C@@H](C)NC(=O)C[C@@H](C(=O)N2CCCCC2)N(C)C(=O)[C@H](Cc2ccccc2)N(C)C(=O)[C@H](C(C)C)NC(=O)[C@H](C)N(C)C(=O)[C@H](CC(C)C)N(C)C(=O)[C@H](C)NC(=O)CN(C)C(=O)[C@H](CC(C)C)N(C)C(=O)[C@H](C)N(C)C(=O)[C@H](Cc2ccccc2)N(C)C1=O [pd153] ([dA][NMeI]I[NMeF][NMeA][NMeL][Sar]A[NMeL][NMeA]V[NMeF][NMeD]-Piperidide; lactam N-13) | 0.20 10^-6 cm/sec | 0.2 | 15.1 | 26.0
